Source: patent publication US5134150A, “Inhibition of the 5-lipoxygenase pathway” (priority 1989, dated 1992)

Experiments:
[1] = system: Experimental Allergic Encephalomyelitis Induced in Female Lewis Rats; experiment: Experimental allergic encephalomyelitis, hindleg paralysis; assay type: in vivo, rat (female Lewis); conditions: for Inhibition of EAE, result in words: rat, in vivo
Protocol: EAE is induced in Female (Charles River) Lewis rats by a single intradermal injection of 0.1 ml of an encephalitogenic emulsion consisting of equial parts of a 50% w/v homogenate of guinea pig spinal cord and mid-brain in 0.5% aqueous phenol and Freund's complete adjuvant (4 mg/ml killed, dried M. butyricum) into a hindpaw (left) footpad. […] Any animal which becomes paralyzed during the course of the experiment is considered to have developed EAE whether or not the paralysis is permanent. Test compounds are administered daily beginning on the day of injection, for 19 days, exclusive of days 5, 6 12 and 13. Drug activity is determined by comparing the indicidence of EAE (paralysis) of the treated group with a control (vehicle) group. The level of significant difference between the treated groups and control groups is determined by a Chi-square test using a 2×2 contingency table. Body weight changes from day 0 are also statistically compared to the control group using a Student "t" test.

5-Lipoxygenase = target: T1, 5-Lipoxygenase (Rattus norvegicus, UniProt P12527); experiment: 5-Lipoxygenase activity (5-HETE) in RBL-1 cell extracts, 10,000 x g supernatant; assay type: biochemical; conditions: Table 8
T1 construct: The activities of these enzymes in extracts of RBL-1 cells were assayed; host or cells: RBL-1
T1 sequence (P12527 1-673): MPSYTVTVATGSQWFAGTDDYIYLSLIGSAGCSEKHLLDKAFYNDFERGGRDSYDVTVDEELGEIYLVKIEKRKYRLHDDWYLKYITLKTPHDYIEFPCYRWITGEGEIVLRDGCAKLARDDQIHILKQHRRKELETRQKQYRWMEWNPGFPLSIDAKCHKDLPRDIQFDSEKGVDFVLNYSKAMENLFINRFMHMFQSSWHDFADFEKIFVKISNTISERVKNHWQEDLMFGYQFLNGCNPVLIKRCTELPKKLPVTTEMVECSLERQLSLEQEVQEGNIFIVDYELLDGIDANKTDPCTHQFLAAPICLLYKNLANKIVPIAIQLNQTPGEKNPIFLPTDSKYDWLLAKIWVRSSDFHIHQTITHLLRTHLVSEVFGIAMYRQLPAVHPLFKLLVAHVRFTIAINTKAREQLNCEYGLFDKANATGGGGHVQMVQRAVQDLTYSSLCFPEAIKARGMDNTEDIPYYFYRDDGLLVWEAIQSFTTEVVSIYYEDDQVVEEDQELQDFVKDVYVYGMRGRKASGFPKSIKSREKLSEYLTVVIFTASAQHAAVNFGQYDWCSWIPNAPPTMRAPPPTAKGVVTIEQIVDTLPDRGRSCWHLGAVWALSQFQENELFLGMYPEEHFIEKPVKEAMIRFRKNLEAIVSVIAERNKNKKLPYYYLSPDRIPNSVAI
Protocol: For in vitro experiments, compounds were dissolved at appropriate concentrations in ethanol or DMSO (dimethylsulfoxide) (final concentration≤1.0%) and then diluted to final concentrations using the buffers indicated in the text.
RBL-1 cells were obtained from the American Type Culture Collection (#CRL 1378) and were grown at 37° C. (5% CO2 in air) in spinner culture in MEM supplemented with 10% heat inactivated fetal calf serum. Harvested cells were washed with 50 mM sodium phosphate buffer, pH 7.0, containing 1 mM EDTA and 0.1% gelatin, resuspended in fresh buffer (5×10^7 cells/ml) and disrupted by nitrogen cavitation using the Parr bomb at 750 psi for 10 min. The broken cell extract was then centrifuged at 10,000× g for 20 minutes (min) and the supernatant centrifuged at 100,000 xIg for 60 min. Aliquots (0.25 mls) of the supernatant were preincubated with or without drugs for 10 min, after which 10 μl CaCl2 (50 mM) was added and the reaction was initiated with 2.5 μl of 2.5 mM arachidonic acid-1-^14 C (final concentration was 25 μM; specific activity 20,000 dpm/nmole). After incubation for 3 min at 37° C., the reaction was terminated by addition of 2 volumes (0.5 ml) ice cold acetone and the sample was allowed to deproteinize on ice for 10 min prior to centrifugation at 1,000× g for 10 min. […] Arachidonic acid, 5-HETE, LTB4 and PGD2 were quantified with a Berthold LB 2832 autoscanner.

[2] = system: LTB4 synthesis by peritoneal exudate cells; experiment: Ex vivo production of LTB4 from peritoneal exudate cells of drug-treated mice; assay type: in vivo, mouse; conditions: for inhibition at 100 mg/kg: Mus musculus, po, 100 mg/kg p.o.
From the text: In the following Examples where mice were used, they were male Balb/c mice (20-28 g), and where rats were used, they were male Lewis rats (180-210 g). All mice and rats were obtained from Charles River Breeding Laboratories, Kingston, N.Y. Within a single experiment, mice and rats were sex and age matched. Auranofin, phenidone, indomethacin, naproxen, and ibuprofen were each used as the free base. The compounds of Formula (I) were used either as the free base or in the appropriate salt form. Levamisole was used as the hydrochloride salt. […] Nordihydroguaiaretic acid (NDGA) was solubilized in dimethylacetamide and diluted with olive oil for subcutaneous administration. Carrageenan-induced peritoneal exudate cells from normal or drug-treated mice were washed and suspended in 2.2 ml of phosphate buffered saline. […] The cell preparation was centrifuged at 1500 rpm for 10 min and the supernatant was extracted using a C-18 silica column. […] A tetrahydrofuran, methanol, water, acetic acid (25:30:45: 0.1) solvent system, adjusted to pH 5.5 with ammonium hydroxide, was used at a flow rate of 0.7 ml/min. Cell derived LTB4 was quantified utilizing standard curves constructed with known amounts of synthetic LTB4.

[3] = system: LTC4 production by human monocytes; experiment: LTC4 production by human monocytes; assay type: cell-based; conditions: Monocyte; A23187-stimulated human monocytes
Protocol: The compounds of Formula (I) were evaluated for their ability to inhibit the production of LTC4 by human monocytes according to the following assay. Human monocytes were prepared from whole blood supplied by the American Red Cross. The blood was fractinated by a two-step procedure employing sedimentation on Ficoll followed by sedimentation on Percoll. […] Non-adherent cells were removed by washing. […] When drugs were evaluated, they were added to the cells 30 minutes prior to the A23187. Supernatants were collected, […] by centrifugation and stored frozed at -20° C. until assay. The LTC4 content was determined by using a New England Nuclear Leukotriene C-4 (^3 H) RIA Kit as per instructions.

Row | SMILES | Inhibition of EAE, result in words [1] | IC50 5-Lipoxygenase (5-Lipoxygenase) | Hindleg paralysis - cumulative incidence, day 14 to 18 ([1]; 60 mg/kg/day, p.o.) | inhibition at 100 mg/kg ([2]; Experiment 1) [%] | inhibition at 100 mg/kg ([2]; Experiment 2) [%] | inhibition at 100 mg/kg ([2]; Experiment 3) [%] | LTB4 production ex vivo, result in words ([2]; mouse, in vivo) | IC50 [3] [nM]
1 | COc1ccc2c(c1)c(CC(=O)O)c(C)n2C(=O)c1ccc(Cl)cc1 [Indomethacin] | not indomethacin | Inactive @ 30 | – | – | – | – | – | –
2 | Fc1ccc(-c2nc3n(c2-c2ccncc2)CCS3)cc1 [Compound 1] | efficacious | – | 0/11 | 90 | 23 | 100 | Impairment of LTB4 production | 1800
